Measured values: article PMC11674187, “Inhibitory Effects of Cenobamate on Multiple Human Cardiac Ion Channels and Possible Arrhythmogenic Consequences” (Biomolecules, 2024)
Values joined by “and” are separate entries in the source; they are usually repeats but may differ in a detail not shown here. Equal values may be shown once. Read-outs that look alike come from different tables or passages of the source.

Biological target: T1, hNav1.5 (Homo sapiens, UniProt Q14524)
T1 construct: host or cells: HEK293T
Assay: Whole-cell patch-clamp on HEK293T cells, late INa (CiPA-like protocol with ATX-II)
Format: cell-based
Description: Experiments were performed on HEK293T cell lines with persistent/inducible expression of different human cardiac ion channel isoforms: hNav1.5 and hKv7.1 + minK (Anaxon AG, Bern, Switzerland), hCav1.2 (α1c + β2 + α2δ1) (B’SYS GmbH, Witterswil, Switzerland), and hKv11.1 (hERG) (Cytocentrics Bioscience GmbH, Rostock, Germany). The cell lines were grown in standard conditions (37 °C, 5% CO2, 90% humidity) in DMEM:F12 medium (D8900, Sigma-Aldrich, Burlington, MA, USA) buffered with 15 mM HEPES, containing 3.15 g/L D-glucose and 0.055 g/L sodium pyruvate, supplemented with 1.2 g/L sodium bicarbonate, 10% fetal bovine serum (F2442, Sigma-Aldrich, Burlington, MA, USA), 2 mM L-glutamine (G7513, Sigma-Aldrich, Burlington, MA, USA), 1% penicillin–streptomycin (P4333, Sigma-Aldrich, Burlington, MA, USA), and with specific antibiotics for selection of transfected cells or induction of gene expression according to manufacturers’ instructions. The medium was changed every 2–3 days and the cells were passed weekly upon detachment with trypsin–EDTA solution. All cell culture media and solutions were sterile filtered with 0.22 μm polyvinylidene fluoride filters. Ncyte® vCardiomyocytes (Ncardia, Leiden, The Netherlands) were cultured in 24-well plates precoated with bovine fibronectin, following manufacturer’s instructions. For the experiments, cardiomyocytes were detached as described previously and plated on ϕ 10 mm glass coverslips, like the other cell lines.
Manual whole-cell patch-clamp experiments were performed at room temperature, with equipment as described in previous studies. Pipettes were pulled from Clark borosilicate glass capillaries with inner filament (GC150F-10, Harvard Apparatus, Holliston, MA, USA) and had typical resistances of 2–3 MΩ. Recordings were performed with a WPC-100 resistive feedback amplifier (ESF electronic, Göttingen, Germany) or an Axopatch 200B amplifier (Axon Instruments—Molecular Devices, San Jose, CA, USA) connected to a Digidata 1322A interface driven by the pClamp 8.2 Clampex module (Axon Instruments, part of Molecular Devices, San Jose, CA, USA). For different types of ion channel, we applied specific voltage-clamp protocols as follows: • - For hERG, a standard two-step activation protocol was used: holding at −70 mV, a 100 ms step at −50 mV used as current reference for measurements, a 2 s depolarizing step at +40 mV, followed by a 2 s step at −50 mV to elicit the peak hERG current by rapid recovery from inactivation, repeated sweeps at 10 s intervals, plus specific protocols to assess the voltage dependence of activation and inactivation, as described in Thomet et al., 2021 [11]. • - For hKv7.1 + minK, a general two-step activation protocol was used: holding at −110 mV, a 250 ms step at −80 mV with a brief (50 ms) step at −90 mV at the middle to monitor seal quality, a 3000 ms depolarizing step at +60 mV, followed by a 1000 ms step at −50 mV; repeated sweeps at 20 s intervals. • - For hCav1.2, a pharmacology protocol with holding at −80 mV, a first 100 ms step at −50 mV and a second 200 ms step at 0 mV, repeated sweeps at 20 s intervals with drug application after 5 sweeps if current levels were steady, plus an activation–inactivation protocol with holding at −80 mV, 1000 ms depolarizing steps from −80 to +50 mV in 10 mV increments, followed by 250 ms steps at +10 mV and a return to −80 mV; 14 sweeps at 20 s intervals. • - For hNav1.5, multiple voltage protocols were used, including the following: • - A standard pharmacology protocol with holding at −90 mV, a 20 ms step at −110 mV for seal monitoring, a 40 ms activation step at −10 mV, and repeated sweeps at 1 s intervals. […]

T1 sequence (Q14524 whole entry): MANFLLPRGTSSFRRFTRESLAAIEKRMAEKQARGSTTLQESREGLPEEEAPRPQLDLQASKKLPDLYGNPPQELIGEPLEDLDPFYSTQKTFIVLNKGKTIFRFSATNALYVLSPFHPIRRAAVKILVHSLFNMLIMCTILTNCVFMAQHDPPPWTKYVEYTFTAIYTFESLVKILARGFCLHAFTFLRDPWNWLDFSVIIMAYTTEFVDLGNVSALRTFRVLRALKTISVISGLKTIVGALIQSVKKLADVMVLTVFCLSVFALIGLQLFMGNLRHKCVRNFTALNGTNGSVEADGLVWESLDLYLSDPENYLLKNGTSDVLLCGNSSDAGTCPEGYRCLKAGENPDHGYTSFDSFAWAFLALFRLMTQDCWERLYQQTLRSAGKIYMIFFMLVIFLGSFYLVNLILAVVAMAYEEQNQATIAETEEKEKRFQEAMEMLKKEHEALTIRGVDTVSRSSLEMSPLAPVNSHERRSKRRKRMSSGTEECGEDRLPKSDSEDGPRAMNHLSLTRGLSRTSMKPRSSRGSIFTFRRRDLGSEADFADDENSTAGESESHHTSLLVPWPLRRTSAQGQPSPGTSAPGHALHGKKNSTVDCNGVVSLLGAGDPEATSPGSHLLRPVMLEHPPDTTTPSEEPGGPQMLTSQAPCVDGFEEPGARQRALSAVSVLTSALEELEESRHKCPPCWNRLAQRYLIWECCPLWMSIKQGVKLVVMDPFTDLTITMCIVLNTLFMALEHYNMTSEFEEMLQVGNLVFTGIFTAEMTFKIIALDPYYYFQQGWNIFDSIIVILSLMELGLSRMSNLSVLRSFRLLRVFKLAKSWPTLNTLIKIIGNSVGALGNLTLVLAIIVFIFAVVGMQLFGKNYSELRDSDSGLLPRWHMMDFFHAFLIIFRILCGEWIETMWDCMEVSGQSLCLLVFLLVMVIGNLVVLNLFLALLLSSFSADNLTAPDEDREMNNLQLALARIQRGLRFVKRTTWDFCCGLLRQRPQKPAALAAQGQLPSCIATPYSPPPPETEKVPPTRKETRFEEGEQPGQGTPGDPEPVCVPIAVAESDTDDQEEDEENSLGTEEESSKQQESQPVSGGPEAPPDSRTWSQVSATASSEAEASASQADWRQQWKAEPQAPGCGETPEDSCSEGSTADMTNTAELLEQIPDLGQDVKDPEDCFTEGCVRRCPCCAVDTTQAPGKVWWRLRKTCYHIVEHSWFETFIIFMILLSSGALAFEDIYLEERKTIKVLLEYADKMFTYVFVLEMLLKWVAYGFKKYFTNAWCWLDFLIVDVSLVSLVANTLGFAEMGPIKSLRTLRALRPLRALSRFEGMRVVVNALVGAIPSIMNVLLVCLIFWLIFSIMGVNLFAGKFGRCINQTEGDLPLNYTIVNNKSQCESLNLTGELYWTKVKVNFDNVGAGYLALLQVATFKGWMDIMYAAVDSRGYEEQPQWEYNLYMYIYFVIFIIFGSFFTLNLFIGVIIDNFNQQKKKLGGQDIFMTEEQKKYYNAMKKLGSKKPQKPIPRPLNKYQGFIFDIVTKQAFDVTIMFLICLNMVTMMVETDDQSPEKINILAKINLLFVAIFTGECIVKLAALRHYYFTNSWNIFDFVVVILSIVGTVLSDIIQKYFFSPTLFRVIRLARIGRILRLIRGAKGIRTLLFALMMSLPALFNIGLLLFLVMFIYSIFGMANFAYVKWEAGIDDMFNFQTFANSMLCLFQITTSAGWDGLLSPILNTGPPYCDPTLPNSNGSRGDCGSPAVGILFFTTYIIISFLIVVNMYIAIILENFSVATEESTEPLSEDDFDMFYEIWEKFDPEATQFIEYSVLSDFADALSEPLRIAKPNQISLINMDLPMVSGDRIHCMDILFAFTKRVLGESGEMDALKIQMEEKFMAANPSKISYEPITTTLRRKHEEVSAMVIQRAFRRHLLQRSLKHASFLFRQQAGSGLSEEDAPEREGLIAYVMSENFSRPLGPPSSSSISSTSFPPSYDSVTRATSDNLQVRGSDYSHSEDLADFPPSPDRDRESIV

`NC(=O)O[C@@H](Cn1ncnn1)c1ccccc1Cl` [cenobamate] gave an inhibition at 1 µM (HEK-293T, cenobamate 1 µM, end of step at 0 mV, read-out: % INa inhibition (late), mean (Table S3)) of 5.58%, an inhibition at 10 µM (HEK-293T, cenobamate 10 µM, read-out: % INa inhibition (late), mean (Table S3)) of 25.4% and an inhibition at 10 µM (HEK-293T, cenobamate 10 µM, read-out: % INa inhibition (late), single experiments (Table S3)) of 25.1%. For the same compound, the inhibition at 40 µM (HEK-293T, cenobamate 40 µM, read-out: % INa inhibition (late), mean (Table S3)) was 49.3%, the inhibition at 40 µM (HEK-293T, cenobamate 40 µM, read-out: % INa inhibition (late), single experiments (Table S3)) was 47.7% and the inhibition at 100 µM (HEK-293T, cenobamate 100 µM, read-out: % INa inhibition (late), mean (Table S3)) was 79.5%. It also gave an inhibition at 100 µM (HEK-293T, cenobamate 100 µM, read-out: % INa inhibition (late), single experiments (Table S3)) of 80.1%, an inhibition at 200 µM (HEK-293T, cenobamate 200 µM, read-out: % INa inhibition (late), mean (Table S3)) of 94.4% and an inhibition at 200 µM (HEK-293T, cenobamate 200 µM, read-out: % INa inhibition (late), single experiments (Table S3)) of 96.7%. The IC50 (INaLIC50 (model script), value entered in C++ script) was 46.5 µM, the IC50 (apparent IC50 for late INa inhibition, ATX-II 20 nM or 100 nM, nH = 1) was 46.5 µM and the “% INa inhibition (late), single experiments (Table S3)” value (“% INa inhibition (late)” for short) (cenobamate 1 µM) was 9.80% and 4.35% and 2.59%. The “% INa inhibition (late)” value (cenobamate 10 µM) was 27.99% and 16.75% and 31.85%, the “% INa inhibition (late)” value (cenobamate 40 µM) was 42.71% and 49.53% and 57.45% and the “% INa inhibition (late)” value (cenobamate 100 µM) was 91.98% and 72.79% and 79.43% and 73.06%. The “% INa inhibition (late)” value (cenobamate 200 µM) was 94.40% and 94.64% and 86.94% and 99.56%.
